Where “and” joins values, the source holds several entries; their conditions need not be identical. Equal values may be shown once.
Legend:
[1] = test system: PKCε translocation; design: method as in PMID 31454418; settings: activated sensory neurons, cultured DRG; cited from earlier work
[2] = target: GluN1-GluN2B receptors (Homo sapiens, UniProt Q05586+Q13224); assay: NMDA-evoked currents in JM4C fibroblasts expressing GluN1-GluN2B; type: cell-based
Description: (§1) Mouse connective tissue fibroblasts JM4C cells stably transfected with NR1A/NR2A or NR1A/NR2B human NMDA inducible receptors were kindly donated by Dr. Paul Whiting, Merk Sharp / Dohme (UK). They were grown in Dulbecco's Modified Basal Eagle's medium (DMEM) with Na+ pyruvate, 4,500 mg glucose and glutamine. For growing, DMEM was added with geneticin 1 mg/ml (Sigma) and foetal bovine serum 10% (Celbio). One day before experiment, fibroblasts confluent dishes were split with trypsin-EDTA 0.05% (Euroclone) and plated at the density of 0.5 × 10^6 cells/ml in 2 ml dishes containing an inducing DMEM with ketamine (final concentration 0.015%, Gellini International, Italy) and 25 nM dexamethasone (Sigma Aldrich) to induce NMDA receptors expression.
(§2) Recordings were performed in cortical and cerebellar neurons after 7–9 days in culture or in spinal cord slices from postnatal rats. All recordings were performed at room temperature, under voltage-clamp in the whole-cell configuration of the patch-clamp technique ([19]). […] Currents were amplified with an Axopatch 1D amplifier (Axon Instruments, Foster City. CA), filtered at 5 kHz, digitized at 10 kHz.
(§3) The chamber used for recording from cultured neurons was continuously perfused at 2 ml/min with an extracellular medium composed of (mM): 145 NaCl, 5 KCl, 1 CaCl2, 5 Hepes, 5 Glucose, and 20 Sucrose, pH 7.4 with NaOH. Intracellular solution contains (mM): 140 KCl, 3 MgCl2, 5 EGTA, 5 Hepes, and 2 ATP-Na, pH 7.3 with KOH.
(§4) All drugs were applied directly by gravity through a Y-tube perfusion system ([21]) in the experiments performed in culture while in slice experiments CR4056 and the receptor antagonists were bath perfused.
(§5) Increasing concentrations of CR4056 (0.1–100 µM) were applied to NMDA-evoked currents in fibroblasts expressing GluN1- GluN2A or GluN1- GluN2B subunits (Figure 3A).

[3] = test system: NMDA receptor; assay: NMDA-evoked currents in primary culture of cortical neurons, whole-cell patch-clamp; type: cell-based, rat; settings: cortical neurons
Description: Primary cultures of cortical (CX) and cerebellar (CB) neurons were prepared from newborn (CX) or seven days old (CB) Sprague-Dawley rats Briefly, cells from cortex and cerebellum were dispersed with trypsin (0.24 mg/ml; Sigma Aldrich, Milan, Italy) and plated at a density of 0.8 × 10^6 cells/ml on 35 mm Falcon dishes coated with poly-L-lysine (10 µg/ml, Sigma Aldrich). Cells were plated in basal Eagle's Medium (BME; Celbio, Milan, Italy), supplemented with 10% fetal bovine serum (Celbio), 2 mM glutamine, 25 mM KCl and 100 µg/ml gentamycin (Sigma Aldrich) and maintained at 37°C in 5% CO2. After 24 h in vitro, the medium was replaced with 1:1 mixture of BME and Neurobasal medium (Celbio, Milan) containing 2% B27 supplement, 1% antibiotic, and 0.25% glutamine (Invitrogen). At […] in vitro (DIV5), cytosine arabinofuranoside (Ara-C) was added at final concentration of 1 µM. Thereafter, half of the medium was replaced twice a week with Neurobasal medium containing 2% B27 supplement, 1% antibiotic, and 0.25% glutamine.
as §2, §3, §4
When CR4056 (10 µM) was delivered inside the cell through the patch pipette the response to NMDA application was recorded at time 0 (just after breaking inside the cell) and after 1.5, 3, 4.5, 6 min. The NMDA-evoked current was recorded at these time intervals and the amplitude of the current was measured.
The effect of CR 4056 in primary neuronal cultures was calculated as % variation of the NMDA-evoked current after application of the drug. A negative variation means a reduction of the control current. Off-line data analysis, curve fitting, and figure preparation were performed with Clampfit 9 or 10 (Molecular Devices, Sunnyvale, CA, United States), Origin 4.1 (Microcal, Northampton, MA, United States), and Microsoft Office (Microsoft). SigmaPlot 11 (SYSTAT, Palo Alto, CA, United States) and GraphPad Prism 9.3 (GraphPad Software, San Diego, CA, United States) were used for statistical analysis.
NMDA-evoked currents were recorded in primary culture of cortical neurons using the patch-clamp technique in the whole cell configuration. Fast application of NMDA (100 µM) and Glycine (10 µM) elicited an inward current that was decreased by CR4056 (Figure 1A); the effect was reversible and dose-dependent (Figure 1B). […] (Figure 1B).

[4] = target: GluN1-GluN2A containing receptors (Homo sapiens, UniProt Q05586+Q12879); assay: NMDA-evoked currents in JM4C fibroblasts expressing GluN1-GluN2A; type: cell-based
Description: as §1, §2, §3, §4, §5

GluN1-GluN2A containing receptors, sequence (Q12879 23-1464, other chains not shown): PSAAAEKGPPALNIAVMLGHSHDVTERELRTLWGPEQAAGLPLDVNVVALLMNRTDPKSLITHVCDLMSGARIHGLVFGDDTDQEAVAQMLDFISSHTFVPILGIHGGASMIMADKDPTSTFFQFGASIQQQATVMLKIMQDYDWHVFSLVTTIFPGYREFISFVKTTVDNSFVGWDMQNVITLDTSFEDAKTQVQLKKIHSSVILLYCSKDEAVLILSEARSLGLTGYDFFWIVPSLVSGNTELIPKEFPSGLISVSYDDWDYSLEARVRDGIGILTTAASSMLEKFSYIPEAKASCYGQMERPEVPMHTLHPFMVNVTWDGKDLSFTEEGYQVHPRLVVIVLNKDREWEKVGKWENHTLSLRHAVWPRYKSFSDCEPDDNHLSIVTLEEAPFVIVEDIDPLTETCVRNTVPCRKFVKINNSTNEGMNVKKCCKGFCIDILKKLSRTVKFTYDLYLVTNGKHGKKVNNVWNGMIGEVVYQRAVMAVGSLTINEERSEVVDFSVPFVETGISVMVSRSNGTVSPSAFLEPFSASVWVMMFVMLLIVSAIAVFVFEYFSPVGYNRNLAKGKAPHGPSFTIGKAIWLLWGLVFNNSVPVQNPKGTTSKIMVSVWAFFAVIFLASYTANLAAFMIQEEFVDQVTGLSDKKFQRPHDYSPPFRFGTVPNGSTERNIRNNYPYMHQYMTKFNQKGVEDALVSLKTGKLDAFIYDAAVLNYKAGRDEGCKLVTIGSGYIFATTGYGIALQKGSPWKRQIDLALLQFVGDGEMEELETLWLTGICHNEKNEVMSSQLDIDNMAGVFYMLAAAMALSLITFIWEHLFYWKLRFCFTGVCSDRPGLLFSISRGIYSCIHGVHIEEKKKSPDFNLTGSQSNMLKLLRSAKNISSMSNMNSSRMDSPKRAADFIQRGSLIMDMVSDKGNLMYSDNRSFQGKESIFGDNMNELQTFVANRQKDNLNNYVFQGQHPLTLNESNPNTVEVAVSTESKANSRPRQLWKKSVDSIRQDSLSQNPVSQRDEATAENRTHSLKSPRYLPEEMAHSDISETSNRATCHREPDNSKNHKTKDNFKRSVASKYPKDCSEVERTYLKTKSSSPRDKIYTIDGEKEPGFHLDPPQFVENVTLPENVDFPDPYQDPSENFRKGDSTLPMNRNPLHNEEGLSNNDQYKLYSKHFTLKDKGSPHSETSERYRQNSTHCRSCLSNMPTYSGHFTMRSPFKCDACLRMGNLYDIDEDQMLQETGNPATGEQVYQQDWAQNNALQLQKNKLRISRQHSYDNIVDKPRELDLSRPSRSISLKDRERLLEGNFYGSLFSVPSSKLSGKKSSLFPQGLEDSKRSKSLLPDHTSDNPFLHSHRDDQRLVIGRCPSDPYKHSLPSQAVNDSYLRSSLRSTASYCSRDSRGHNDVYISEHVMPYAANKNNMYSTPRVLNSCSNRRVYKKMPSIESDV
GluN1-GluN2B receptors, sequence (Q13224 27-1484, other chains not shown): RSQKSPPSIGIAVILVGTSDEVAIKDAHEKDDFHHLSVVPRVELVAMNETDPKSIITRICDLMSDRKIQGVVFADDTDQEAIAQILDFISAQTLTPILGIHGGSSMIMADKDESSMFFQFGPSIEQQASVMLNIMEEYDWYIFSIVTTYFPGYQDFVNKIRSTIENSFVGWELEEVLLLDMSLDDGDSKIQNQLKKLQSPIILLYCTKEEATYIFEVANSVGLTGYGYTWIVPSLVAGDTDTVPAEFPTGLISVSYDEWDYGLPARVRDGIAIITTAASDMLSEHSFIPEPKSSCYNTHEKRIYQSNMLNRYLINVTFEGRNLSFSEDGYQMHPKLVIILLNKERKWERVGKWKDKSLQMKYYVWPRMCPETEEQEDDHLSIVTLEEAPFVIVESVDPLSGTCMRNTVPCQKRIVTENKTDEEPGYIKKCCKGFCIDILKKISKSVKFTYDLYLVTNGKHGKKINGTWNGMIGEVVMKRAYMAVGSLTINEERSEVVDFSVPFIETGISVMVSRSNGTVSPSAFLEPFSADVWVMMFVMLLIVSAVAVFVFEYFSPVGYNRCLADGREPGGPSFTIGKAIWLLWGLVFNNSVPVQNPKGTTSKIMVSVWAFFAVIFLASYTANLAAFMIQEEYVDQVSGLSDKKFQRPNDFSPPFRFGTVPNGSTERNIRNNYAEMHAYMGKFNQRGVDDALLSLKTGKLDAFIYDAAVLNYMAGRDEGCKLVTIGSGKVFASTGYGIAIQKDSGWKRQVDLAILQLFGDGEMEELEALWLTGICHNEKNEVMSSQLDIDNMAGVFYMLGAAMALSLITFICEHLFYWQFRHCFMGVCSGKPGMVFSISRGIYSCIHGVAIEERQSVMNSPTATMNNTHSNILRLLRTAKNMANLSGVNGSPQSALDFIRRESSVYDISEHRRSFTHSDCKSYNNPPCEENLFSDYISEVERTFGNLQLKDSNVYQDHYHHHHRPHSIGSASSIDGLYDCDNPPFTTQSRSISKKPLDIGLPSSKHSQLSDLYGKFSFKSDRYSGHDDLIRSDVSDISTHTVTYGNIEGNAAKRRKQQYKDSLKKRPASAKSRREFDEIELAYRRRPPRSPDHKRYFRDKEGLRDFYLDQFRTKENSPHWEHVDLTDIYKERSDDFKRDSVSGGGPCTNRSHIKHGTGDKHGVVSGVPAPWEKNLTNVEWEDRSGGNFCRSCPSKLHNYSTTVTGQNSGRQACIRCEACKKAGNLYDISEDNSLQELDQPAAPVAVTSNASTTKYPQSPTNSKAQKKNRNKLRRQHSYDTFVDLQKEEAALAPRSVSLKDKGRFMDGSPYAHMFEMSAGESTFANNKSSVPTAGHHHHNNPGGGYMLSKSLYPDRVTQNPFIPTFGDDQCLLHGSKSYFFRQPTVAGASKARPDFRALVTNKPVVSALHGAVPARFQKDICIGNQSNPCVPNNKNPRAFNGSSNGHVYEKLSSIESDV

Cl.c1ccc2oc(C3=NCCN3)cc2c1 [2-BFI, 2-(2-Benzofuranyl)-2-imidazoline hydrochloride, reference compound]
effect on PKCε translocation [1]: ineffective
IC50 ([2]; 0.1–100 µM, read-out: IC50 of reduction of NMDA-evoked current, GluN1-GluN2B): 11 ± 6 µM
Emax ([2]; read-out: efficacy (Eff, maximal effect) on NMDA-evoked current, GluN1-GluN2B): -73 ± 7%
IC50 ([3]; NMDA 100 µM + glycine 10 µM, read-out: IC50 of reduction of NMDA-evoked current): 8 µM and 13 µM
maximal reduction of NMDA current (efficacy) ([3]; from dose-response curve): 76 ± 2% and 48 ± 5%
IC50 ([4]; 0.1–100 µM, read-out: IC50 of reduction of NMDA-evoked current, GluN1-GluN2A): 23 ± 12 µM
Emax ([4]; read-out: efficacy (Eff, maximal effect) on NMDA-evoked current, GluN1-GluN2A): -39 ± 6%

Reference: paper PMC9632859, “Modulation of NMDA receptor activity by CR4056, an imidazoline-2 receptor ligand with analgesic properties” (Frontiers in Pain Research, 2022)
